Test system: KRAS patient-derived spheroids with HUVEC/MSC, viability
Experiment: Anticancer human tumor 323965-272-R-J2-PDC patient-derived pancreatic carcinoma cell line growth inhibition [KRAS2]
Conditions: for IC50: curve of first compound; for viability, T/C: stronger effect = lower value
Description: Multicellular complex tumor spheroid response to RAS pathway inhibitors in combination with a targeted agents in patient-derived cell lines with oncogenic KRAS variants from multiple cancer types
A high-throughput screen of multi-cell type tumor spheroids was designed to identify active combinations of targeted small molecules and KRAS pathway inhibitors. Complex spheroids include a stromal component modeled by human endothelial cells (HUVEC) and fibroblasts modeled by human mesenchymal stem cells (MSCs). The concentration ranges selected for each drug and investigational agent were based upon clinically achievable concentrations if the clinical Cmax of the agent was known.
Compounds. The drugs and investigational agents: BI-3406 (NSC825286), BAY-293 (NSC824723), batoprotafib (TNO155; NSC825523), sotorasib (AMG 510; NSC818433), MRTX1257 (NSC819558), elimusertib (BAY 1895344; NSC800525), molibresib (GSK525762; NSC774829), temuterkib (LY3214996; NSC803410), venetoclax (NSC766270), alisertib (NSC759677), olaparib (NSC753686), talazoparib (NSC767125), erdafitinib (NSC781556), ipatasertib (NSC767898), cabozantinib (NSC761068), nintedanib (NSC756659), abemaciclib (NSC768073), docetaxel (NSC628503), trametinib (NSC758246), and sapanisertib (NSC764658) were obtained from the National Cancer Institute (NCI) Developmental Therapeutics Program Chemical Repository. The FDA-approved anticancer drug set is available from the Developmental Therapeutics Program. […] The stock solutions were prepared in dimethyl sulfoxide (DMSO, Sigma-Aldrich, St. Louis, MO, cat. D2650) at 800-fold the tested concentration and stored at -70 degrees C prior to their use. All drugs and investigational agents were tested over a range starting from a high concentration at or near the clinical Cmax and decreasing in half-log increments. If the clinical Cmax for an agent had not been determined, the highest concentration tested was 10 microM.
Cell Culture. All cells were maintained in an incubator at 37 degrees C and 5% CO2 with 95% humidity. The PDC lines were cultured according to standard operating procedures established by the NCI PDMR (https://pdmr.cancer.gov/sops/default.htm). Briefly, all PDCs were thawed and cultured in Matrigel-coated flasks prepared with a working solution of 1X Ham's F-12 nutrient mix, without supplementation (Invitrogen, Waltham, MA, cat. 11765054), 100 U/mL penicillin-streptomycin (Invitrogen, cat. 15140122), and 2.5% Matrigel (Corning Inc., Corning, NY, cat. 354248) for the first three passages. All PDCs were cultured in complete DMEM/F-12 media containing advanced DMEM/F-12 (Invitrogen, cat. 12634028), 4.9% defined fetal bovine serum, heat inactivated (HyClone Laboratories Inc., Logan, UT, cat. SH30070.03HI), 389 ng/mL hydrocortisone (Sigma-Aldrich, cat. H4001), 9.7 ng/mL human EGF recombinant protein (Invitrogen, cat. PHG0313), 23.4 microg/mL adenine (Sigma-Aldrich, cat. A2786), 97.3 U/mL penicillin-streptomycin (Invitrogen, cat. 15140122), 1.9 mM L-glutamine (Invitrogen, cat. 25030081), and 9.7 microM Y-27632 dihydrochloride (Tocris Bioscience, Bristol, United Kingdom, cat. 1254). The PDCs were cultured in complete DMEM/F12 media without 9.7 microM Y-27632 dihydrochloride for at least two passages prior to the screen. The established cell line HOP-62 was cultured in RPMI 1640 medium, HEPES (Invitrogen, cat. 22400105) with 10% defined fetal bovine serum (HyClone Laboratories Inc., cat. SH30070.03) and 2 mM L-glutamine (Invitrogen, cat. 25030081). The pooled donor HUVEC were cultured in endothelial cell growth medium 2 (PromoCell, Heidelberg, Germany, cat. C-22011) and the hMSC were cultured in mesenchymal stem cell growth medium 2 (PromoCell, cat. C-28009). For all experiments, HUVEC and hMSC were used at passages </=5, while the malignant cell lines were used at passages </=15. […]

[1] = second compound 0.1 µM, first compound 0.00316 µM
[2] = second compound 0.1 µM, first compound 0.01 µM
[3] = second compound 0.1 µM, first compound 0.0316 µM
[4] = second compound 0.1 µM, first compound 0.1 µM
[5] = second compound 0.316 µM, first compound 0.00316 µM
[6] = second compound 0.316 µM, first compound 0.01 µM
[7] = second compound 0.316 µM, first compound 0.0316 µM
[8] = second compound 0.316 µM, first compound 0.1 µM
[9] = second compound 1 µM, first compound 0.00316 µM
[10] = second compound 1 µM, first compound 0.01 µM
[11] = second compound 1 µM, first compound 0.0316 µM
[12] = second compound 1 µM, first compound 0.1 µM
[13] = second compound 3.16 µM, first compound 0.00316 µM
[14] = second compound 3.16 µM, first compound 0.01 µM
[15] = second compound 3.16 µM, first compound 0.0316 µM
[16] = second compound 3.16 µM, first compound 0.1 µM
[17] = second compound 0.1 µM, first compound 0.316 µM
[18] = second compound 0.1 µM, first compound 1 µM
[19] = second compound 0.316 µM, first compound 0.316 µM
[20] = second compound 0.316 µM, first compound 1 µM
[21] = second compound 1 µM, first compound 0.316 µM
[22] = second compound 1 µM, first compound 1 µM
[23] = second compound 3.16 µM, first compound 0.316 µM
[24] = second compound 3.16 µM, first compound 1 µM
[25] = second compound 10 µM, first compound 0.01 µM
[26] = second compound 10 µM, first compound 0.0316 µM
[27] = second compound 10 µM, first compound 0.1 µM
[28] = second compound 10 µM, first compound 0.316 µM
[29] = second compound 10 µM, first compound 1 µM
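Also: spheroids exposed to agents for 7 days.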
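For viability, T/C in this document: 100% = DMSO vehicle control viability.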

| SMILES | IC50 (second compound 0.1 µM) | IC50 (second compound 0.316 µM) | IC50 (second compound 1 µM) | IC50 (second compound 3.16 µM) | viability, T/C [1] | viability, T/C [2] | viability, T/C [3] | viability, T/C [4] | viability, T/C [5] | viability, T/C [6] | viability, T/C [7] | viability, T/C [8] | viability, T/C [9] | viability, T/C [10] | viability, T/C [11] | viability, T/C [12] | viability, T/C [13] | viability, T/C [14] | viability, T/C [15] | viability, T/C [16] | further results |
| --- | --- | --- | --- | --- | --- | --- | --- | --- | --- | --- | --- | --- | --- | --- | --- | --- | --- | --- | --- | --- | --- |
| CN(C)C/C=C/C(=O)Nc1cc2c(Nc3ccc(F)c(Cl)c3)ncnc2cc1O[C@H]1CCOC1 + C=CC(=O)N1CCN(c2nc(OCC3CCCN3C)nc3c2CCN(c2cccc4cccc(C)c24)C3)CC1CC#N | 1.77 nM | 2.3 nM | 2.3 nM | < 0.316 nM | 48.4% | 42.4% | 40.9% | 42.3% | 53.2% | 43.1% | 39.2% | 39.1% | 52.6% | 41.9% | 40.7% | 42.5% | 19.4% | 17.3% | 17% | 14.7% | IC50 (second compound 0.0316 µM): 13 nM; viability, T/C (second compound 0.0316 µM, first compound 0.000316 µM): 75.1%; viability, T/C (second compound 0.0316 µM, first compound 0.001 µM): 66.2%; viability, T/C (second compound 0.0316 µM, first compound 0.00316 µM): 55.9%; viability, T/C (second compound 0.0316 µM, first compound 0.01 µM): 49.6%; viability, T/C (second compound 0.0316 µM, first compound 0.0316 µM): 49.9%; viability, T/C (second compound 0.0316 µM, first compound 0.1 µM): 47.9%; viability, T/C (second compound 0.1 µM, first compound 0.000316 µM): 66%; viability, T/C (second compound 0.1 µM, first compound 0.001 µM): 52.5%; viability, T/C (second compound 0.316 µM, first compound 0.000316 µM): 56.2%; viability, T/C (second compound 0.316 µM, first compound 0.001 µM): 51.1%; viability, T/C (second compound 1 µM, first compound 0.000316 µM): 62.5%; viability, T/C (second compound 1 µM, first compound 0.001 µM): 52.4%; viability, T/C (second compound 3.16 µM, first compound 0.000316 µM): 36.8%; viability, T/C (second compound 3.16 µM, first compound 0.001 µM): 34.9% |
| CCN1CCN(Cc2ccc(Nc3ncc(F)c(-c4cc(F)c5nc(C)n(C(C)C)c5c4)n3)nc2)CC1 + COc1cc2nc(C)nc(NC(C)c3cc(N)cc(C(F)(F)F)c3)c2cc1OC1CCOC1 | 90.2 nM | 25.9 nM | 32.6 nM | 21.9 nM | 85.5% | 78.3% | 59.5% | 48.2% | 75.2% | 59% | 50% | 41.7% | 65.7% | 59.9% | 51.4% | 42.9% | 85.2% | 64% | 43.8% | 39.1% | IC50 (second compound 10 µM): 75.6 nM; viability, T/C [17]: 44.4%; viability, T/C [18]: 51.4%; viability, T/C [19]: 37.8%; viability, T/C [20]: 48.3%; viability, T/C [21]: 41%; viability, T/C [22]: 48.3%; viability, T/C [23]: 32.7%; viability, T/C [24]: 49.5%; viability, T/C (second compound 10 µM, first compound 0.00316 µM): 86.6%; viability, T/C [25]: 74%; viability, T/C [26]: 53.4%; viability, T/C [27]: 48.7%; viability, T/C [28]: 39.9%; viability, T/C [29]: 22.4% |
| CC(=O)OC12COC1CC(O)C1(C)C(=O)C(O)C3=C(C)C(OC(=O)C(O)C(NC(=O)OC(C)(C)C)c4ccccc4)CC(O)(C(OC(=O)c4ccccc4)C21)C3(C)C (stereo not given) + CNCc1ccccc1-c1csc(C(C)Nc2nc(C)nc3cc(OC)c(OC)cc23)c1 | < 10 nM | < 10 nM | < 10 nM | < 10 nM |  | 29% | 25.5% | 24.1% |  | 23.3% | 24.3% | 21.9% |  | 27.5% | 25.7% | 28.4% |  | 0.95% | 26.9% | 4.54% | IC50 (second compound 10 µM): < 10 nM; viability, T/C [17]: 25.7%; viability, T/C [18]: 26.5%; viability, T/C (second compound 0.1 µM, first compound 3.16 µM): 28.6%; viability, T/C [19]: 21.8%; viability, T/C [20]: 23%; viability, T/C (second compound 0.316 µM, first compound 3.16 µM): 25.7%; viability, T/C [21]: 28.2%; viability, T/C [22]: 32.7%; viability, T/C (second compound 1 µM, first compound 3.16 µM): 35.3%; viability, T/C [23]: 0.8%; viability, T/C [24]: 7.93%; viability, T/C (second compound 3.16 µM, first compound 3.16 µM): 30.4%; viability, T/C [25]: 0.72%; viability, T/C [26]: 0.14%; viability, T/C [27]: 0.36%; viability, T/C [28]: 0.45%; viability, T/C [29]: 0.41%; viability, T/C (second compound 10 µM, first compound 3.16 µM): 0.21% |

— PubChem BioAssay AID1963869 (Molecular Pharmacology Branch, DTP, NCI, 2024)
